# Data published in patent publication US20070196294A1, “Photostable sunscreen compositions comprising dibenzoylmethane compound UV-A filters and s-triazine compounds” (L'OREAL, priority 2006, published 2007).
# Assay: Photostability of formulations on PMMA sheets exposed in a Heraeus Suntest
# Assay type: physicochemical
# Settings: formulations 9 and 10 versus control formulation 8
# Description: Method for Measuring the Photostability:
# For each formulation, constituents given in % by weight, 3 test samples and 3 control samples were prepared. 2 mg/cm^2 of formulation are deposited on poly(methyl methacrylate) sheets using a spatula.
# The test sheets are exposed for 38 min to a Heraeus Suntest equipped with a xenon lamp having a UV-A flux of 9.51×10^−3 W/cm^2 and a UV-B flux of 5.43×10^−4 W/cm^2. The control sheets are stored for the same time and at the same temperature (38-40° C.) in darkness.
# At the end of this time, the screening agents are extracted by immersing each sheet in 50 g of methanol and by subjecting them to ultrasound for 15 min in order to provide for good extraction. The solutions obtained are analyzed by HPLC and UV spectrophotometry.
# For each formulation tested, the residual 4-(tert-butyl)-4′-methoxydibenzoylmethane level after exposure is given in the ratio of its optical density (OD) in the exposed sample to its unexposed optical density (OD). The positions adopted are the absorption maxima corresponding to butyl-methoxy-dibenzoylmethane: λmax=358 nm.
compound,measurement,value
"CCCCOC(=O)c1ccc(Nc2nc(Nc3ccc(C=C(C(=O)OCC(C)(C)C)C(=O)OCC(C)(C)C)cc3)nc(Nc3ccc(C=C(C(=O)OCC(C)(C)C)C(=O)OCC(C)(C)C)cc3)n2)cc1 [Example 1, 2,4-bis(dineopentyl 4′-aminobenzalmalonate)-6-(butyl 4″-aminobenzoate)-s-triazine]",Photostability of the dibenzoylmethane in the presence of the compound (result in words),improvement in the photostability of the dibenzoylmethane
